According to patent publication US20110086802A1, “METHODS TO INCREASE PERMEABILITY OF CORNEAL EPITHELIUM AND DESTABILIZE STROMAL COLLAGEN FIBRIL NETWORK” (priority 2008, published 2011):
Structures can show the parent of a compound that is named as a salt.

B1: human recombinant decorin: Human recombinant Decorin prepared from CHO-S cells, MW approximately 40,000 daltons; stabilization molecule (small leucine-rich proteoglycan) (protein, UniProt P07585 31-359, looked up)
Decorin: DEASGIGPEVPDDRDFEPSLGPVCPFRCQCHLRVVQCSDLGLDKVPKDLPPDTTLLDLQNNKITEIKDGDFKNLKNLHALILVNNKISKVSPGAFTPLVKLERLYLSKNQLKELPEKMPKTLQELRAHENEITKVRKVTFNGLNQMIVIELGTNPLKSSGIENGAFQGMKKLSYIRIADTNITSIPQGLPPSLTELHLDGNKISRVDAASLKGLNNLAKLGLSFNSISAVDNGSLANTPHLRELHLDNNKLTRVPGGLAEHKYIQVVYLHNNNISVVGSSDFCPPGHNTKKASYSGVSLFSNPVQYWEIQPSTFRCVYVRSAIQLGNYK

Assays:
corneal epithelium = settings: cited from earlier work
[1] = system: epithelial cell junctures of human donor corneal tissue; test: Confocal microscopy of fluorescent-tagged decorin penetration into donor cornea; assay type: in vitro ADME; settings: for disruption of epithelial cell junctures permitting diffusion of human recombinant decorin: human donor cornea, agent applied 30 seconds to central cornea by applicator before fluorescent-tagged decorin
Source text: Confocal Microscopy of glutaric anhydride treated cornea. Four donor corneas were obtained from Insight Biomed (Minneapolis, Minn.). All cornea tested negative for viral contamination. Corneas were rejected for transplantation due to storage expiration, low endothelial cell counts or other factors not related to epithelial cell integrity and stromal structure. All corneas were examined by slit-lamp microscopy for epithelial cell integrity. Corneas were stored in Optisol (Bausch & Lomb) for storage. Confocal microscopy was conducted at the Department of Surgical Research, Dartmouth-Hitchcock Medical Center, Lebanon, N.H. Two corneas were untreated controls and two were treated with glutaric anhydride followed by application of fluorescent-tagged human recombinant decorin. […] Fluorescent-tagged decorin was prepared by reacting decorin with Oregon Green 488 using a labeling kit from Molecular Probes.
All corneas were placed on a convex silicone pad and secured with pins. This allowed exposure to the corneal surface in a fixed position. All treatment solutions were administered using an applicator to localize exposure to the central corneal surface. Control cornea were treated with Proparacaine HCl for 1 minute followed by treatment with 0.5 mL of 0.2M sodium phosphate buffer (pH 8.3-8.5) for 30 seconds, 0.5 mL of saline rinse for 30 seconds, and then 0.1 mL of fluorescent-tagged human recombinant decorin. T reated cornea were treated with Proparacaine HCl for 1 minute, followed by treatment with 0.5 mL of 0.2M sodium phosphate buffer (pH 8.3-8.5) for 30 seconds, glutaric anhydride (dissolved immediately before application in sodium phosphate buffer (pH 8.3-8.5) at 5 mg/mL) for 30 seconds, saline rinsed, and then treated with 0.1 mL of fluorescent-tagged human recombinant decorin. Control and treated corneas were examined for decorin diffusion into the stroma using the Zeis confocal microscope (Model LSM 510 Meta; C apo 40×, NA=1.2, Thornwood, N.Y.).
Confocal Microscopy of acetic anhydride treated cornea. The protocol was the same as that described above for glutaric anhydride treatment. All treatment solutions were administered using an applicator to localize exposure to the central corneal surface. The applicator used to apply solutions to the corneal surface was similar in design to that described in the co-pending provisional application entitled “APPARATUS TO IMPROVE LOCALIZED CONCENTRATION OF FLUIDS IN OCULAR ENVIRONMENTS” to Bruce DeWoolfson and Michael Luttrell, provisional application No. 61/064,731, filed Mar. 24, 2008, incorporated herein by reference in its entirety. Control cornea were treated with Proparacaine HCl for 1 minute followed by treatment with 0.5 mL of 0.2M sodium phosphate buffer (pH 8.3-8.5) for 30 seconds, 0.5 mL of saline rinse for 30 seconds, and then 0.1 mL of fluorescent-tagged human recombinant decorin. Treated cornea were treated with Proparacaine HCl for 1 minute, followed by treatment with 0.5 mL of 0.3M sodium phosphate buffer (pH 8.3-8.5) for 30 seconds, acetic anhydride (3 μL) (diluted with 0.3M sodium phosphate buffer (pH 8.3-8.5) immediately before application) for 30 seconds, saline rinsed, and then treatment with 0.1 mL of fluorescent-tagged human recombinant decorin. Control and treated corneas were examined for decorin diffusion into the stroma using the Zeis confocal microscope (Model LSM 510 Meta; C apo 40×, NA=1.2, Thornwood, N.Y.).

feline cornea [2] = test: Corneal Hysteresis, Feline Study #1 (Reichert Ocular Response Analyzer); assay type: in vivo, cat; design: Corneal Hysteresis (CH): unit not given here
Experimental: Cats were placed in three treatment groups. One eye from two cats were untreated controls. All treatment solutions were administered using an applicator to localize exposure to the central corneal surface. The applicator used to apply solutions to the corneal surface was similar in design to that described in the co-pending provisional application entitled “APPARATUS TO IMPROVE LOCALIZED CONCENTRATION OF FLUIDS IN OCULAR ENVIRONMENTS” to Bruce DeWoolfson and Michael Luttrell, provisional application No. 61/064,731, filed Mar. 24, 2008, incorporated herein by reference in its entirety. Two eyes was treated with Proparacaine HCl, followed by treatment with 0.5M sodium phosphate buffer (pH 8.35), then with 3 mg of glutaric anhydride dissolved in 0.6 mL of sodium phosphate buffer, then with sodium phosphate buffer, followed by 1.5 μL of acetic anhydride diluted in 0.6 mL of sodium phosphate buffer, a second treatment with 1.5 μL of acetic anhydride in 0.6 mL of sodium phosphate buffer, a buffer rinse and finally treatment with 0.6 mL of human recombinant decorin (4.47 mg/mL).
Two eyes were treated as above but without a final treatment with decorin solution. All eyes were clinically evaluated immediately post-treatment. Three days following treatment, eyes were enucleated and the corneas removed, placed in formalin containing Cupromeronic blue.
Measurements of Corneal Hysteresis (CH) in the animals treated in Example 2. Corneal Hysteresis is a measure of the biomechanical strength of the cornea and is measured using the Reichert Ocular Response Analyzer. The Reichert Ocular Response Analyzer utilizes a dynamic bi-directional applanation process to measure the biomechanical properties of the cornea and the Intraocular Pressure of the eye. The basic output of the measurement process is a Goldmann-correlated pressure measurement (IOPG), and a new measure of corneal tissue properties called Corneal Hysteresis (CH).

feline cornea [3] = test: Corneal Hysteresis, Feline Study #2 (Reichert Ocular Response Analyzer); assay type: in vivo, cat; design: Corneal Hysteresis (CH): unit not given here
Experimental: A second study was conducted to examine the effects of acylation on “softening” or destabilizing corneal structural integrity using the Reichert Ocular Response Analyzer. Five subject animals were included in this study. One eye of each animal was treated with the contralateral eye serving as the control. For three animal subjects treatment eyes were evaluated for corneal hysteresis using the Reichert Ocular Response Analyzer before treatment and then after treatment with Proparacaine HCL, acetic anhydride diluted in sodium phosphate solution at a pH of 8.3-8.5, and decorin. For two animal subjects, no acylation agent was applied to the cornea. Instead, a 4 mm trephine was used to penetrate the corneal epithelium to provide a track for decorin penetration. Corneal hysteresis results are shown below in Table 2.

stromal collagen fibers = test: Transmission electron microscopy of decorin-treated cat cornea (first study); assay type: in vivo; settings: cat eyes exposed to 50 μg decorin for 1, 3 or 5 days, no applicator; versus control cornea
Experimental: The following study was conducted at the Department of Surgical Research, Dartmouth-Hitchcock Medical Center, Lebanon, N.H. Five adult female cats were included in the study. All animals procured from Liberty Laboratories and were identified by ear tattoo. Ocular toxicity was determined by slit-lamp examination and measurement of endothelial cell structure. Decorin penetration into the corneal stroma was determined utilizing transmission electron microscopy. Cornea treated with decorin were reacted with Quinolinic Blue Stain (Cupromeronic blue) in buffered formalin. This reagent stains small proteoglycan structures such as decorin.
Cats were placed in three treatment groups. One eye from each group was treated with decorin. Three eyes were controls. Treated eyes were exposed to 50 μg of decorin for 1 day, 3 days or 5 days. Decorin solution was administered to the corneal using a sterile transfer pipet. An applicator was not used to localize the solution to the central corneal surface. All eyes were clinically evaluated immediately post-treatment and at days 2, 3, 5, and 8. One month after final treatment, eyes were reexamined and then enucleated. Each eye was sectioned. One half was placed in Formalin for subsequent histological analysis. The other half was again divided in half, one half prepared for Transmission Electron Microscopy. […]

[4] = Animal IBT4 treated eye, after the named step of the sequence Proparacaine, GA, AA #1, AA #2, decorin, Initial 4.0
[5] = Animal QKU8 treated eye, no decorin, after the named step of the sequence, Initial 7.0
[6] = Animal QKU8 treated eye, after the named step of the sequence, Initial 6.4
[7] = Animal QNO6 treated eye, no decorin, after the named step of the sequence, Initial 6.3
[8] = Animal AHH3, after the named step of Proparacaine HCL, acetic anhydride, decorin, Initial 8.75
[9] = Animal QJD4, after the named step of Proparacaine HCL, acetic anhydride, decorin, Initial 6.9
[10] = Animal RAF6, after the named step of Proparacaine HCL, acetic anhydride, decorin, Initial 5.88

| Molecule | disruption of epithelial cell junctures permitting diffusion of human recombinant decorin [1] | Corneal Hysteresis (CH) (feline cornea [2]; [4]) | Corneal Hysteresis (CH) (feline cornea [2]; [5]) | Corneal Hysteresis (CH) (feline cornea [2]; [6]) | Corneal Hysteresis (CH) (feline cornea [2]; [7]) | Corneal Hysteresis (CH) (feline cornea [3]; [8]) | Corneal Hysteresis (CH) (feline cornea [3]; [9]) | Corneal Hysteresis (CH) (feline cornea [3]; [10]) | other results |
| --- | --- | --- | --- | --- | --- | --- | --- | --- | --- |
| C[C@@H]1CC[C@@]2(OC1)O[C@H]1[C@@H](O)[C@H]3[C@@H]4CC[C@H]5C[C@@H](O[C@@H]6O[C@H](CO)[C@H](O[C@@H]7O[C@H](CO)[C@@H](O)[C@H](O[C@@H]8OC[C@@H](O)[C@H](O)[C@H]8O)[C@H]7O[C@@H]7O[C@H](CO)[C@H](O)[C@H](O[C@@H]8O[C@H](CO)[C@@H](O)[C@H](O)[C@H]8O)[C@H]7O)[C@H](O)[C@H]6O)[C@H](O)C[C@]5(C)[C@H]4CC[C@]3(C)[C@H]1[C@@H]2C [digitonin] | – | – | – | – | – | – | – | – | effect of pretreating cornea on drug penetration (corneal epithelium; Shih and Lee): enhance penetration of timolol; effect of pretreating cornea on epithelium layers (corneal epithelium; Shih and Lee): exfoliate the top 2 layers of epithelium |
| O=C1CCCC(=O)O1 [glutaric anhydride] | successfully disrupted the epithelial cell junctures | 3.3 | 6.4 | 5.3 | 6.4 | – | – | – | – |
| CC(=O)OC(C)=O [acetic anhydride] | successfully disrupted the epithelial cell junctures | 3.2 | 5.7 | 7.0 | 5.7 | 5.73 | 3.9 | 4.15 | Corneal Hysteresis (CH) (feline cornea [2]; Animal IBT4 treated eye, Post-AA #2 (second acetic anhydride treatment), Initial 4.0): 3.9; Corneal Hysteresis (CH) (feline cornea [2]; Animal QKU8 treated eye, Post-AA #2, Initial 6.4): 6.7; Corneal Hysteresis (CH) (feline cornea [2]; Animal QKU8 treated eye, Post-AA #2, Initial 7.0): 4.8; Corneal Hysteresis (CH) (feline cornea [2]; Animal QNO6 treated eye, Post-AA #2, Initial 6.3): 3.8 |
| cetylpyridium chloride | – | – | – | – | – | – | – | – | effect on corneal epithelium (corneal epithelium; 0.02%, Godbey): disrupted the top layers of epithelial cells |
| CCCOc1ccc(C(=O)OCCN(CC)CC)cc1N [Proparacaine, Proparacaine HCl, reference compound] | – | 7.0 | 7.5 | 8.0 | 7.0 | – | – | – | – |
| B1 | – | 4.6 | – | 7.9 | – | 7.3 | 6.3 | 5.18 | Corneal Hysteresis (CH) (feline cornea [3]; Animal BEA4, no acylation agent, 4 mm trephine through epithelium, Initial 3.65): 4.8; Corneal Hysteresis (CH) (feline cornea [3]; Animal IRH6, no acylation agent, 4 mm trephine through epithelium, Initial 7.98): 8.03; change of CH values, in words (feline cornea [3]; Feline Study #2, acylation agent treated cornea): increased CH values; change of CH values, in words (feline cornea [3]; Feline Study #2, trephined but not acylation agent treated cornea): minimal increase in CH values; decorin penetration into cornea ([1]; control cornea, epithelial cell junctures not disrupted, applied directly to central cornea): limited to the epithelium; decorin penetration into cornea ([1]; cornea pretreated with acetic anhydride (3 μL) for 30 seconds): penetrated the corneal stroma; decorin penetration into cornea ([1]; cornea pretreated with glutaric anhydride 5 mg/mL for 30 seconds): penetrated the corneal stroma; molecular bridges (links between fibers) between collagen fibers, TEM (stromal collagen fibers): increase in molecular bridges; change of corneal hysteresis (CH), in words (feline cornea [2]; Feline Study #1, sequential acylation then decorin): increased CH values to levels greater than initial values |
